Literature values as cited in patent US5679660A, “Pharmaceutical composition comprising diclofenac and cyclodextrin” (Farmarc Nederland BV, priority 1993, dated 1997).

Settings: literature, Backensfeld and Mueller 1990

OC[C@H]1O[C@@H]2O[C@H]3[C@H](O)[C@@H](O)[C@@H](O[C@H]4[C@H](O)[C@@H](O)[C@@H](O[C@H]5[C@H](O)[C@@H](O)[C@@H](O[C@H]6[C@H](O)[C@@H](O)[C@@H](O[C@H]7[C@H](O)[C@@H](O)[C@@H](O[C@H]8[C@H](O)[C@@H](O)[C@@H](O[C@H]1[C@H](O)[C@H]2O)O[C@@H]8CO)O[C@@H]7CO)O[C@@H]6CO)O[C@@H]5CO)O[C@@H]4CO)O[C@@H]3CO [Beta-cyclodextrin]
effect on aqueous solubility of diclofenac: increase the aqueous solubility
